For the assay, the target named is T1, CCR1 (Homo sapiens, UniProt P32246).
T1 sequence (P32246 1-355): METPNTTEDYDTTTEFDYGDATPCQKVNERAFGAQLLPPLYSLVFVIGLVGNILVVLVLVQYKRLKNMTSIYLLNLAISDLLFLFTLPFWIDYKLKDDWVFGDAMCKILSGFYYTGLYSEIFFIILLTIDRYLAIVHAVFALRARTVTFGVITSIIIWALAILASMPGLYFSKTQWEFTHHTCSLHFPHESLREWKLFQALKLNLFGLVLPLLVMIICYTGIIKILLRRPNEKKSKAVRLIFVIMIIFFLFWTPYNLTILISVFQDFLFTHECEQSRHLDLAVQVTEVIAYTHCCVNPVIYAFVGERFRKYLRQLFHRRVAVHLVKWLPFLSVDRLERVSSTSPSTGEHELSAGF
Briefly: Membrane-based NanoBRET association and dissociation kinetic assays with 12. Also noted: Promega pNLF1-C (Nluc) #CCR010TN00; host or cells: HEK293T, transient (PEI). Type of assay: binding. The protocol:
Membrane-based NanoBRET association kinetic assay: 5 µL of a solution of the fluorescent ligand (12) diluted to varying concentrations (final assay concentrations: 1–3 µM) in assay buffer and 5 µL of assay buffer were transferred to a 384-well plate. For the determination of non-specific binding, we added a solution of a non-labeled competitor dissolved in assay buffer (5, final assay concentration: 10 µM) instead. After the addition of 5 µL of a furimazine solution (final assay dilution:
1:630 in assay buffer), plates were incubated for 3 minutes in the dark at ambient temperature. Subsequently, 20 µL of the membrane preparation (3 µg total protein/well) were added (final assay volume: 35 µL). BRET ratios were measured with a CLARIOstar microplate reader using 620/10 nm and 475/30 nm emission filters over time at ambient temperature.
The obtained data were analyzed using the association kinetics (one ligand concentration) algorithm in PRISM10.2.1 (GraphPad, USA) to determine association kinetics using a pre-determined koff as a constraint.
Membrane-based NanoBRET dissociation kinetic assay: 5 µL of a solution of the fluorescent ligand (12) diluted to varying concentrations (final assay concentrations: 0.25–3 µM) in assay buffer and 5 µL of assay buffer were transferred to a 384-well plate. In order to determine non-specific binding, we added a solution of a non-labeled competitor dissolved in assay buffer (5, final assay concentration: 10 µM) instead of the 5 µL of assay buffer. Then, 20 µL of the membrane preparation (3 µg total protein/well) were added, and plates were incubated for 1 h at ambient temperature in the dark.
Subsequently, 5 µL of a furimazine solution (final assay dilution: 1:630 in assay buffer) were added. Plates were incubated for further 5 minutes in the dark at ambient temperature. Thereafter, 1 µL of a solution of a […] competitor dissolved in assay buffer (5, final assay concentration: 10 µM) was added. For control experiments, we added 1 µL of assay buffer instead of the competitor solution. BRET ratios were measured with a CLARIOstar microplate reader using 620/10 nm and 475/30 nm emission filters over time at ambient temperature. Specific BRET ratios were calculated as a difference of total and non -specific binding. […]
mM HEPES, no phenol red supplemented with 5% FBS) was added and cells were incubated at 37 °C for 30 minutes.
Then, 5 µL of a solution containing the fluorescent ligand ( 12), diluted in assay medium at varying concentrations, were added in case of saturation binding experiments. To determine non-specific binding, 5 µL of a solution of 5 dissolved in assay medium (final assay concentration: 10 µM) were added. For competition binding experiments, 5 µL of a solution of the fluorescent ligand (12) diluted in assay medium (final assay concentration: 1 µM) and 5 µL of a solution of the potential competitor (diluted from 10 mM DMSO-stock solutions with assay medium) at varying concentrations were added to the corresponding wells. After 90 min of incubation at 37 °C, 5 µL of a furimazine solution (final assay dilution: 1:2500, diluted with assay medium) were added. After a further incubation of 5 min in the dark at 37 °C, BRET ratios were measured with a CLARIOstar microplate reader using 620/10 nm and 475/30 nm emission filters. Total, non-specific and specific binding, which was calculated as a difference of total and non-specific binding, were analyzed using the algorithms for one-site saturation binding in PRISM10.2.1 (GraphPad, USA). To determine the inhibition constants (Ki) of the potential competitors, data were normalized to total and non-specific binding and analyzed using the one site-fit Ki equation in PRISM10.2.1 (GraphPad, USA).
Kinetic solubility assay: Kinetic solubility was assessed in saline phosphate buffer pH 7.25 (1.19 g Na2HPO4·12 H2O, 0.095 g KH2PO4 and 4.0 g NaCl in 0.5 L double distilled water). The pH was adjusted to 7.25 with concentrated […]
hydrochloric acid. […]

SMILES strings stand for the structures. Like-named read-outs stand apart in the source and are kept apart here.

One may read the Kd as the concentration at which binding is half-saturated. In general, koff refers to the rate constant with which the complex falls apart. Broadly, the kon is the second-order rate constant of association. A word on the residence time: it is how long the partners stay bound on average.

`CN(C)c1ccc2c(-c3cc(C(=O)NCCOCCOCc4cn(CCCC(=O)C5=C(O)C(=O)N(c6ccc(Br)cc6F)C5C5CCCCC5)nn4)ccc3C(=O)[O-])c3ccc(=[N+](C)C)cc-3oc2c1` (stereo not drawn) [compound 12]: the Kd (CCR1_Nluc membranes, from kon and koff, read-out: kinetic KD value KD(kin.)) is 317 ± 32 nM. Besides, the koff is 0.00233 s⁻¹ (CCR1_Nluc membranes, read-out: koff (converted)); 0.00172 s⁻¹ (dissociation at room temperature (membranes), 12 at 250-3000 nM, read-out: koff, single experiments (Table S1) (converted)); 0.00233 s⁻¹ (dissociation at room temperature (membranes), read-out: koff, mean (Table S1) (converted)). Further, the kon reads like this: (CCR1_Nluc membranes, read-out: kon (converted)) 7350 M⁻¹ s⁻¹; (association at room temperature (membranes), read-out: kon, mean (Table S1) (converted)) 7360 M⁻¹ s⁻¹. Where the note is “CCR1_Nluc membranes, read-out: residence time tr”, the residence time was found to be 7.31 ± 0.22 min. For the same compound, the “tR, mean (Table S1)” value (dissociation at room temperature (membranes)) was 7.31 min. Also, the “koff, single experiments (Table S1)” value (dissociation at room temperature (membranes), 12 at 250-3000 nM) was found to be 0.001978 s⁻¹.

For the origin of these results see paper PMC11249626, “Fluorophore-Labeled Pyrrolones Targeting the Intracellular Allosteric Binding Site of the Chemokine Receptor CCR1” (ACS Pharmacology & Translational Science, 2024).
